Data reported in the NIST ThermoML archive (doi:10.1016/j.jct.2018.03.017).
Numbers after ± are expanded uncertainties.

Tests used:
[1] = 96 kPa, Liquid, Pycnometric method
[2] = xn = mol fraction of the nth substance listed; conditions: 96 kPa, Liquid, Pycnometric method, x2 = 0

| mass density ([1]; 288.15 K) | mass density ([1]; 293.15 K) | mass density ([1]; 298.15 K) | mass density ([1]; 303.15 K) | mass density ([1]; 308.15 K) | mass density ([1]; 313.15 K) | mass density ([1]; 318.15 K) | mass density ([1]; 323.15 K) | mass density ([1]; 328.15 K) | mass density ([2]; 288.15 K) | mass density ([2]; 293.15 K) | mass density ([2]; 298.15 K) | mass density ([2]; 303.15 K) | mass density ([2]; 308.15 K) | mass density ([2]; 313.15 K) | mass density ([2]; 318.15 K) | mass density ([2]; 323.15 K) | mass density ([2]; 328.15 K) | Compound |
| --- | --- | --- | --- | --- | --- | --- | --- | --- | --- | --- | --- | --- | --- | --- | --- | --- | --- | --- |
| 1262.7 ± 8.2 kg/m3 | 1260.5 ± 8.2 kg/m3 | 1257.2 ± 8.2 kg/m3 | 1254.8 ± 8.2 kg/m3 | 1251.5 ± 8.2 kg/m3 | 1248.9 ± 8.2 kg/m3 | 1246 ± 8.2 kg/m3 | 1242.4 ± 8.2 kg/m3 | 1240.5 ± 8.2 kg/m3 |  |  |  |  |  |  |  |  |  | OCC(O)CO [glycerol] |
| 1020.6 ± 8.2 kg/m3 | 1017.1 ± 8.2 kg/m3 | 1014.1 ± 8.2 kg/m3 | 1010.9 ± 8.2 kg/m3 | 1007.4 ± 8.2 kg/m3 | 1004.6 ± 8.2 kg/m3 | 1000.8 ± 8.2 kg/m3 | 998.4 ± 8.2 kg/m3 | 994.2 ± 8.2 kg/m3 |  |  |  |  |  |  |  |  |  | C1CCC2=NCCCN2CC1 [1,8-diaza-7-bicyclo[5.4.0]undecene] |
|  |  |  |  |  |  |  |  |  | 1262.7 ± 8.2 kg/m3 | 1260.5 ± 8.2 kg/m3 | 1257.2 ± 8.2 kg/m3 | 1254.8 ± 8.2 kg/m3 | 1251.5 ± 8.2 kg/m3 | 1248.9 ± 8.2 kg/m3 | 1246 ± 8.2 kg/m3 | 1242.4 ± 8.2 kg/m3 | 1240.5 ± 8.2 kg/m3 | OCC(O)CO [glycerol] + C1CCC2=NCCCN2CC1 |
